Data set [1] concerns gastro intestinal motility. The data set can be described thus: Gastro Intestinal Motility Charcoal Transit Assay. The class given is in vivo. As to conditions: for % inhibition of GI motility: Table 4, orally dosed, charcoal transit. The method, then: Animals were treated with 0.2 mL croton oil 96 and 72 hours before the gastro intestinal transit (GIT) assay. Animals were fasted overnight prior to charcoal meal dosing. Test and control articles were administered (PO, IP) followed by an oral dose of aqueous suspension of 5% charcoal in 10% gum arabic. […] Charcoal meal test were given 30 min post-test article dose. Twenty minutes after administration of the charcoal test meal, animals were euthanized via CO2 inhalation followed by cervical dislocation, and the small and large intestines were examined to evaluate GI transit and motility. GI transit is expressed as a percentage of the distance traveled by the charcoal test meal divided by the length of the intestine.

Data set [2] can be described thus: SIF assay (stability in simulated intestinal fluid). The data set is classed as in vitro ADME. The following applies: for SIF (min): Table 4, SIF half-life; for half-life at 20 μM: simulated intestinal fluid (SIF) with pancreatin, simulated intestinal fluid, pH 6.8, pancreatin, 37° C. As to the method:
SIF was prepared by adding 6.8 g of monobasic potassium phosphate and 10.0 g of pancreatin to 1.0 L of water. After dissolution, the pH was adjusted to 6.8 using NaOH. DMSO stocks (2 mM) were prepared for each of the opioid agonist peptides. Aliquots of the DMSO solutions were dosed into […], each containing 0.5 mL of SIF, which was pre-warmed to 37° C. The final opioid agonist peptide concentration was 20 μM. The vials were kept in a benchtop Thermomixer® for the duration of the experiment. At each timepoint (0, 5, 10, 20, 40, 60, or 360 minutes or 24 hours), 1.0 mL of acetonitrile containing 1% formic acid was added to one vial to terminate the reaction. Samples were stored at 4° C. until the end of the experiment. After the final timepoint was sampled, the tubes were mixed and then centrifuged at 3,000 rpm for 10 minutes. Aliquots of the supernatant were removed, diluted 1:1 into distilled water containing an internal standard, and analyzed by LCMS/MS. The percent of the opioid agonist peptide remaining at each timepoint was calculated based on the peak area response ratio of opioid agonist peptide to the internal standard. Time 0 was set to 100%, and all later timepoints were calculated relative to time 0. Half-lives were calculated by fitting to a first-order exponential decay equation using Graph pad.

In another data set the test system is visceral pain (writhing). Put plainly: Acetic Acid or Acetylcholine Writhing Assay. The class given is in vivo. As to conditions: PO; for effect on pain (writhing study): FIGS. 3A and 3B. As to the method:
Animals were fasted overnight prior to the start of the assay. Test and control article doses, ranging from 3-50 mg/kg, were administered (PO) followed by an IP injection of acetic acid (1.0%) or acetylcholine (10 mg/kg), and immediately placed in a viewing chamber. […] Writhing (abdominal constriction) was defined as a contraction of the abdominal musculature accompanied by arching of the back and extension of the limbs. Latency to first writhe and total number of writhes were recorded. Test articles included oral eluxadoline and two illustrative opioid peptides disclosed herein, Peptide A and Peptide D; and control articles included loperamide and morphine
On the technique in general: Writhing tests count abdominal constrictions after an irritant is injected.

A further data set concerns the target T1, μ-opioid receptor (MOR) (Homo sapiens, UniProt P35372).
T1 construct: host or cells: cAMP Hunter CHO-K1 OPRM1 Gαi cell line
Put plainly: MOR agonist cAMP assay (HitHunter cAMP, forskolin-stimulated). The class given is cell-based. A digest of the protocol: (§1)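 CHO-K1 Gαi cells expressing OPRM1 or OPRD1 were exposed 30 min at 37° C to 11-point threefold agonist dilutions, in duplicate, with 20 uM forskolin final. cAMP quantified by EFC chemiluminescent competitive immunoassay against cAMP standards. EC50 by four-parameter Hill nonlinear regression.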

Data set [3] can be described thus: SGF assay (stability in simulated gastric fluid). The class given is in vitro ADME. The following applies: pig, simulated gastric fluid (SGF) with porcine pepsin, pH 2, pepsin, 37° C. The method, then:
SGF was prepared by adding 20 mg NaCl, 32 mg porcine pepsin (MP Biochemicals, catalog 02102599), and 70 μl HCl to 10 ml water (final pH=2). Aliquots of SGF (0.5 ml each) were pre-warmed at 37° C. To start the reaction, 1 μl of opioid agonist peptide stock solution (10 mM in DMSO) was added to 0.5 ml SGF and thoroughly mixed such that the final peptide concentration was 20 μM. The reactions were incubated at 37° C. with gentle shaking.
At each timepoint (0, 15, 30, 60 min) 50 µl aliquots were removed and added to 200 ul of acetonitrile containing 0.1% formic acid to quench the reaction. Samples were stored at 4° C. until the end of the experiment and centrifuged at 10,000 rpm for 5 minutes. Aliquots of the supernatant were removed, diluted 1:1 into distilled water containing internal standard, and analyzed by LCMS/MS. The percent of the opioid agonist peptide remaining at each timepoint was calculated based on the peak area response ratio of the opioid agonist peptide to the internal standard. Time 0 was set to 100%, and all later timepoints were calculated relative to time 0. Half-lives were calculated by fitting to a first-order exponential decay equation using GraphPad.

The next data set addresses T2, δ-opioid receptor (DOR) (Homo sapiens, UniProt P41143).
T2 construct: host or cells: cAMP Hunter CHO-K1 OPRD1 Gαi cell line
Put plainly: DOR agonist cAMP assay (HitHunter cAMP, forskolin-stimulated). The class given is cell-based. A digest of the protocol:
as §1
On the technique in general: cAMP levels reflect the balance of adenylyl cyclase and phosphodiesterase activity.

Square brackets hold non-standard residues; d marks the D form. Peptide text beside a SMILES is read from it. Dmt = Cc1cc(O)cc(C)c1C[C@H](N)C(=O)O; β3hF = N[C@H](CC(=O)O)Cc1ccccc1; Sar = CNCC(=O)O

Consider 18 compounds from patent US10278957B2, “Opioid agonist peptides and uses thereof” (Protagonist Therapeutics, Inc., priority 2017, dated 2019).

As usually defined, the EC50 is the concentration that produces a half-maximal response. Low values mean greater potency, high ones weaker potency. By half-life is commonly meant the time needed for the level to fall by half in the phase considered. High values mean slow decline, low ones rapid decline.

T2 sequence (P41143 whole entry): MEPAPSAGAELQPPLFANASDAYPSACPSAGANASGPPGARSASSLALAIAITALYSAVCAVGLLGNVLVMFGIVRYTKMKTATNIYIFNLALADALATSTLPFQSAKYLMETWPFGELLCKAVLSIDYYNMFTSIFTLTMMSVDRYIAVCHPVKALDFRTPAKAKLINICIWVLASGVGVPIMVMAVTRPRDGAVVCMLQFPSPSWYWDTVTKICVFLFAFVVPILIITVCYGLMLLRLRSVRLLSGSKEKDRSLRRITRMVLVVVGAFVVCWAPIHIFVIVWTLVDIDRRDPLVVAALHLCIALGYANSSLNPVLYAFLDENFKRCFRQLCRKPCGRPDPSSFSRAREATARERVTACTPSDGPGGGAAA
T1 sequence (P35372 whole entry): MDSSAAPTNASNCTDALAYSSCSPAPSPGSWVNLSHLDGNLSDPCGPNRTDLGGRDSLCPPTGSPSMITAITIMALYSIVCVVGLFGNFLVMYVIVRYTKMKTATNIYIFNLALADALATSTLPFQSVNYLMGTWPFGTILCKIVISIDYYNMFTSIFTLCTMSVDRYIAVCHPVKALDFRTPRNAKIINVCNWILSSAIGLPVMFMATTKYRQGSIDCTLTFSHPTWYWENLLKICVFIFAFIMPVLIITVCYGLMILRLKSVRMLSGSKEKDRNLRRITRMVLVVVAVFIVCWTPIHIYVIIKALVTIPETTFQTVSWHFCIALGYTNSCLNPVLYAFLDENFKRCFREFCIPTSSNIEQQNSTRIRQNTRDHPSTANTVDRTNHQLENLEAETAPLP

As for `Cc1cc(O)cc(C)c1C[C@H](N)C(=O)N[C@H](C)C(=O)NCC(=O)N[C@H](CC(=O)N(C)CC(N)=O)Cc1ccccc1` [Seq. ID 43, H-DMT-a-G-bhF-Sar-NH2], the “% inhibition of GI motility” value in data set [1] is “** (** indicates between 50% and 100%)”. Besides, the “inhibition of small intestine motility as compared to eluxadoline” value in data set [1] (orally administered, all doses tested, FIG. 1A) is “slightly greater inhibition of small intestine motility”. Also, the “inhibition of GI transit as compared to eluxadoline” value in data set [1] (orally administered, all doses tested, FIGS. 1B and 1C) is reported as “greater inhibition of GI transit”. Also, the “SIF (min)” value in data set [2] is recorded as “**** (for SIF half-life values, **** indicates >1290)”. The “effect on pain (writhing study)” value in the data set on visceral pain (writhing) is given as “positive effect”. In addition, the “visceral pain (writhing study)” value in the data set with visceral pain (writhing) (at 30 mg/kg and 10 mg/kg, FIGS. 2A and 2B) is listed as “significantly reduced visceral pain”.
`Cc1cc(O)cc(C)c1C[C@H](N)C(=O)N[C@H](C)C(=O)N[C@@H](C)C(=O)N[C@H](CC(=O)N(C)CC(N)=O)Cc1ccccc1` [Seq. ID 66, DMT-(D)Ala-Ala-(b-homoPhe)-Sar-NH2] (H-[Dmt][dA]A[β3hF][Sar]-NH2): at μ-opioid receptor (MOR) (Table 4, MOR EC50 divided by DOR EC50), the “Ratio (MOR EC50/DOR EC50)” value was “* (for ratio, * indicates between 0.1 and 0.3)”. In addition, in data set [1], the “% inhibition of GI motility” value was “* (for % inhibition of GI motility, * indicates between 30% and 50%)”. Moreover, the “SIF (min)” value in data set [2] is recorded as “**** (for SIF half-life values, **** indicates >1290)”.
On to `Cc1cc(C(N)=O)cc(C)c1C[C@H](N)C(=O)N[C@H](Cc1ccc(O)cc1)C(=O)NCC(=O)N[C@H](CC(=O)N(C)CC(N)=O)Cc1ccccc1` [compound 85], for which the EC50 at μ-opioid receptor (MOR) and on δ-opioid receptor (DOR) was less than 1 nM in each case. Moreover, the half-life at 20 μM in data set [3] was 6 to 24 h; in data set [2] it was more than 24 h.
Regarding `Cc1cc(C(N)=O)cc(C)c1C[C@H](N)C(=O)N[C@H](C)C(=O)NCC(=O)N[C@H](CC(=O)N(C)[C@@H](CC(C)C)C(=O)O)Cc1ccccc1` [compound 92], the EC50 on μ-opioid receptor (MOR) is 1 to 10 nM; on δ-opioid receptor (DOR) it was less than 1 nM. Also, the half-life at 20 μM in data set [3] and in data set [2] was more than 24 h each time.
As for `Cc1cc(C(N)=O)cc(C)c1C[C@H](N)C(=O)N[C@H](C)C(=O)NCC(=O)N[C@H](CC(=O)N(C)[C@@H](C)C(=O)O)Cc1ccccc1` [compound 93], the EC50 on μ-opioid receptor (MOR) and at δ-opioid receptor (DOR) was less than 1 nM in each case. The half-life at 20 μM in data set [3] and in data set [2] was more than 24 h each time.
As for `Cc1cc(C(N)=O)cc(C)c1C[C@H](N)C(=O)N[C@H](C)C(=O)NCC(=O)N[C@H](CC(=O)N(C)[C@H](C(=O)O)C(C)C)Cc1ccccc1` [compound 96], the EC50 on μ-opioid receptor (MOR) and at δ-opioid receptor (DOR) was less than 1 nM each time. Further, the half-life at 20 μM in data set [3] and in data set [2] was more than 24 h throughout.
As for `Cc1cc(C(N)=O)cc(C)c1C[C@H](N)C(=O)N[C@H](C)C(=O)NCC(=O)N[C@H](CC(=O)N(C)[C@H](C(=O)O)c1ccccc1)Cc1ccccc1` [compound 99], the EC50 at μ-opioid receptor (MOR) and on δ-opioid receptor (DOR) was less than 1 nM in each case. Also, the half-life at 20 μM in data set [3] and in data set [2] was more than 24 h each time.
Consider `CCCC[C@@H](C(=O)O)N(C)C(=O)C[C@H](Cc1ccccc1)NC(=O)CNC(=O)[C@@H](C)NC(=O)[C@@H](N)Cc1c(C)cc(C(N)=O)cc1C` [compound 101], for which the EC50 on μ-opioid receptor (MOR) is 1 to 10 nM; on δ-opioid receptor (DOR), less than 1 nM. Further, the half-life at 20 μM in data set [3] and in data set [2] was more than 24 h each time.
Consider `Cc1cc(C(N)=O)cc(C)c1C[C@H](N)C(=O)N[C@H](C)C(=O)NCC(=O)N[C@H](CC(=O)N(C)[C@@H](Cc1ccc(O)cc1)C(=O)O)Cc1ccccc1` [compound 102], for which the concentration for a half-maximal effect (EC50) on μ-opioid receptor (MOR) and on δ-opioid receptor (DOR) was less than 1 nM in each case. Moreover, the half-life at 20 μM in data set [3] and in data set [2] was more than 24 h in each case.
Consider `Cc1cc(O)cc(C)c1C[C@H](N)C(=O)N[C@H](C)C(=O)NCC(=O)N[C@H](CC(=O)N(C)[C@@H](C)C(=O)O)Cc1ccccc1` [compound 111], for which the EC50 at μ-opioid receptor (MOR) and at δ-opioid receptor (DOR) was less than 1 nM in each case. The half-life at 20 μM in data set [3] and in data set [2] was more than 24 h each time.
For `Cc1cc(O)cc(C)c1C[C@H](N)C(=O)N[C@H](C)C(=O)NCC(=O)N[C@H](CC(=O)N(CC(N)=O)Cc1ccccc1)Cc1ccccc1` [compound 118], the EC50 on μ-opioid receptor (MOR) and on δ-opioid receptor (DOR) was less than 1 nM throughout. Besides, the half-life at 20 μM in data set [3] and in data set [2] was more than 24 h throughout.
Take `CCCC[C@@H](C(=O)O)N(C)C(=O)C[C@H](Cc1ccccc1C)NC(=O)CNC(=O)[C@@H](C)NC(=O)[C@@H](N)Cc1c(C)cc(O)cc1C` [compound 140]: the EC50 on μ-opioid receptor (MOR) and on δ-opioid receptor (DOR) was less than 1 nM each time. Also, the half-life at 20 μM in data set [3] and in data set [2] was 6 to 24 h in each case.
As for `Cc1cc(O)cc(C)c1C[C@H](N)C(=O)N[C@H](C)C(=O)NCC(=O)N[C@H](CC(=O)N(C)[C@H](C(=O)O)C(C)C)Cc1ccccc1` [compound 161], the EC50 on μ-opioid receptor (MOR) and at δ-opioid receptor (DOR) was less than 1 nM throughout. In addition, the half-life at 20 μM in data set [3] and in data set [2] was more than 24 h each time.
Take `CCCC[C@@H](C(=O)O)N(C)C(=O)C[C@H](Cc1ccc(C)cc1)NC(=O)CNC(=O)[C@@H](C)NC(=O)[C@@H](N)Cc1c(C)cc(C(N)=O)cc1C` [compound 165]: the EC50 on μ-opioid receptor (MOR) and at δ-opioid receptor (DOR) was less than 1 nM in each case. Also, the figures for the half-life at 20 μM in data set [3] and in data set [2] were more than 24 h and 0.167 to 6 h, respectively.
As to `CCCC[C@@H](C(=O)O)N(C)C(=O)C[C@H](Cc1ccc(F)cc1)NC(=O)CNC(=O)[C@@H](C)NC(=O)[C@@H](N)Cc1c(C)cc(C(N)=O)cc1C` [compound 166], the concentration giving a half-maximal response (EC50) at μ-opioid receptor (MOR) and on δ-opioid receptor (DOR) was less than 1 nM in each case. Also, the half-life at 20 μM in data set [3] and in data set [2] was more than 24 h each time.
Consider `CCCC[C@@H](C(=O)O)N(C)C(=O)C[C@H](Cc1cccc(Cl)c1)NC(=O)CNC(=O)[C@@H](C)NC(=O)[C@@H](N)Cc1c(C)cc(C(N)=O)cc1C` [compound 167], for which the EC50 on μ-opioid receptor (MOR) and at δ-opioid receptor (DOR) was less than 1 nM throughout. The half-life at 20 μM in data set [3] and in data set [2] was more than 24 h each time.
For `Cc1cc(O)cc(C)c1C[C@H](N)C(=O)N[C@H](CC(=O)O)C(=O)NCC(=O)N[C@H](CC(=O)NCC(N)=O)Cc1ccccc1` [compound 179] (H-[Dmt][dD]G[β3hF]G-NH2), the EC50 at μ-opioid receptor (MOR) and on δ-opioid receptor (DOR) was less than 1 nM in each case. Moreover, the half-life at 20 μM in data set [3] and in data set [2] was more than 24 h in each case.
Turning to `COc1ccc(CN(C(=O)[C@@H](N)Cc2c(C)cc(C(N)=O)cc2C)[C@@H](C)c2ncc(-c3ccccc3)[nH]2)cc1C(=O)O` [eluxadoline, reference compound], the “effect on pain (writhing study)” value in the data set with visceral pain (writhing) is given as “little effect on pain”.
